Reference: patent US9457031B2, “Antibacterial protein kinase inhibitors” (priority 2012, dated 2016)

Tests used:
M. tb [1] = assay: colony-forming unit (CFU) assay to determine bacterial survival; assay type: cell-based, Mycobacterium tuberculosis; details: compared to the parent OSU-03012 and the other derivatives; FIG. 1
M. smegmatis = assay type: cell-based; details: compared to the parent OSU-03012 and the other derivatives; FIG. 1
M. tb [2] = assay type: cell-based, Mycobacterium tuberculosis; details: 5 μM concentration against M. tb during 72 h; FIGS. 4a and 4b

Row | SMILES | killing of M. tb (bacterial survival, CFU) (M. tb [1]) | killing of M. smegmatis (bacterial survival, CFU) (M. smegmatis) | in vitro antimycobacterial activity upon screening of cpd2-24 derivatives (M. tb [2])
1 | NS(=O)(=O)Nc1ccc(-n2nc(C(F)(F)F)cc2-c2ccc3c(ccc4ccccc43)c2)cc1 [cpd-2] | significantly kill | significantly kill | –
2 | CNC(=O)CCc1cc(-c2ccc(-c3ccc(C(F)(F)F)cc3)cc2)n(-c2ccc(NC(=O)N3CCOCC3)cc2)n1 [cpd2-24-3, N-(4-(3-(3-(methylamino)-3-oxopropyl)-5-(4′-(trifluoromethyl)-[1,1′-biphenyl]-4-yl)-1H-pyrazol-1-yl)phenyl)morpholine-4-carboxamide] | – | – | particularly effective
3 | CNC(=O)CCc1cc(-c2ccc(-c3ccc(C(F)(F)F)cc3)cc2)n(-c2ccc(NC(=O)c3ccncc3)cc2)n1 [cpd2-24-5, N-(4-(3-(3-(methylamino)-3-oxopropyl)-5-(4′-(trifluoromethyl)-[1,1′-biphenyl]-4-yl)-1H-pyrazol-1-yl)phenyl)isonicotinamide] | – | – | particularly effective
4 | CNC(=O)CCc1cc(-c2ccc(-c3ccc(C(F)(F)F)cc3)cc2)n(-c2ccc(NC(=O)c3cccnc3)cc2)n1 [cpd2-24-7, N-(4-(3-(3-(methylamino)-3-oxopropyl)-5-(4′-(trifluoromethyl)-[1,1′-biphenyl]-4-yl)-1H-pyrazol-1-yl)phenyl)nicotinamide] | – | – | particularly effective
5 | CNC(=O)CCc1cc(-c2ccc(-c3ccc(C(F)(F)F)cc3)cc2)n(-c2ccc(NC(=O)c3ccccn3)cc2)n1 [cpd2-24-6, N-(4-(3-(3-(methylamino)-3-oxopropyl)-5-(4′-(trifluoromethyl)-[1,1′-biphenyl]-4-yl)-1H-pyrazol-1-yl)phenyl)picolinamide] | – | – | particularly effective
